{"source": "paper PMC4996933", "about": "“Shared active site architecture between archaeal PolD and multi-subunit RNA polymerases revealed by X-ray crystallography” (Nature Communications, 2016)", "target": "T1, PolD DP1 (144-622), proofreading exonuclease subunit (Pyrococcus abyssi, UniProt Q9V2F3)", "T1 construct": "gene polB; residues 144-622, flexible N-terminal region removed; N-terminal 14-His tag cut with TEV; E. coli BL21(DE3) Rosetta2; di-metal site Fe3+/Zn2+; two copies in the asymmetric unit", "T1 sequence (Q9V2F3 141-619)": "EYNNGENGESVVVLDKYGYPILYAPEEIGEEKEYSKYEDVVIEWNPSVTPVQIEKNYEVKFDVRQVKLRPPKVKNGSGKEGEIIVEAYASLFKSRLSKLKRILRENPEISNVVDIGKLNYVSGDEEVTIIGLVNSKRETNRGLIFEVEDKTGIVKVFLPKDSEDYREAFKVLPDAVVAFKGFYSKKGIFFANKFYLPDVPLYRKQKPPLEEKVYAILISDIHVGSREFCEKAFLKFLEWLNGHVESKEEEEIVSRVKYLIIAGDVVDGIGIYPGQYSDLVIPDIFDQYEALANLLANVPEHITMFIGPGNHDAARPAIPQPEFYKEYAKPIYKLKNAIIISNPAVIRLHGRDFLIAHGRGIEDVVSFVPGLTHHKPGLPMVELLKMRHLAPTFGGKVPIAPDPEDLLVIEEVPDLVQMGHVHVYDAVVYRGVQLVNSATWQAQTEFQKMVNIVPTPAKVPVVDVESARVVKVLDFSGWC", "assay": "X-ray crystallography, co-crystallization, […] Å", "format": "binding", "settings": "5 mM dAMP, pH 6.7, 4 °C; Fe3+/Zn2+ nuclease active site; calcium acetate in crystallization buffer"}
{"smiles": "Nc1ncnc2c1ncn2[C@H]1C[C@H](O)[C@@H](COP(=O)(O)O)O1", "note": "[dAMP]", "values": [{"measurement": "X-ray crystallography, co-crystallization, 2.5 Å", "value": "DP1 was co-crystallized together with deoxy-adenosine monophosphate (dAMP)"}]}
